system: L-M cells; assay: NGF production and secretion by mouse L-M cells (NGF promoter activity), NGF level by enzyme immunoassay; assay type: cell-based; details: 24 h, read-out: % Control (NGF produced and secreted relative to cells not treated with the test compounds)
Excerpt: Furukawa et al. have reported that fibroblast-forming L-M cells from mouse connective tissue can produce and secrete a relatively large amount of NGF, and that catecholamines accelerate such production and secretion of NGF (J. Biol. Chem., 261, 6039-6047, 1986). […] The test compounds of this invention were employed at 10 γ/ml, and the known compounds were employed at 20 γ/ml.
Culture medium 199 containing 0.5% peptone was used for culturing L-M cells (for the culture medium 199, see, for instance, Morgan et al., proc. Soc. Exp. Biol. Med., 73, 1 (1950) or Morgan et al. J. Natl. Cancer Inst., 16, 557 (1955). About […] of L-M cells were placed in each well of a culture plate with 24 wells, and cultured using a CO2 incubator (37° C., 5% CO2) until confluence. After removing the culture medium, the cultured cells were washed once with a wash solution which was 199 culture medium containing 0.5% bovine serum albumin (Fraction V, Sigma). The test compounds were added to a specified concentration to a 199 culture medium containing 0.5% bovine serum albumin, and used to treat 0.5 ml of L-M cells. After culturing the L-M cells in a CO2 incubator for 24 hours, the medium was recovered and the NGF level was determined.
NGF was quantitatively determined using an enzyme immunoassay [Korshing, Thoenen, et al. Proc. Natl. Acad. Sci. USA, 80, 3513-3516, (1983)]. 75 μl of a solution of anti-mouse β-NGF antibody (0.3 μg/ml, pH 9.6; Boehringer Mannheim) was piperted into each well of a polystyrene plate with 96 wells. After allowing the plate to stand at room temperature for an hour, the antibody was removed by washing three times with the wash solution. 50 μl of a solution of standard β-NGF (Wako Pure Chemical Industries Ltd.) or of the recovered medium was piperted into the wells. After allowing the plate to stand for […] at room temperature,the standard β-NGF or test solution was removed and each well was washed three times. 50 μl of a solution of β-NGF monoclonal antibody (100 mU/ml, pH 7.0; BoehringerMannheim) labelled with β-galactosidase was piperted into each well. After allowing the plate to stand at 4° C. for 15-18 hours, enzyme labelled antibody was removed and the wells washed three times followed by pipetting 100 μl of a solution of chlorophenol red-β-D-galactopyranoside (1 mg/ml, pH 7.3; BoehringerMannheim) into each well. Color was allowed to develop (after 2-3 hours at room temperature), and the absorbance was determined at 570 nm.
The amount of NGF was calculated from a standard curve. The results are expressed as a relative value (%) which is relative to the amount of NGF produced and secreted by cells treated not with the test compounds. The numerical values (% Control) are expressed by the mean value in the 3 wells of the control (without addition of the test compounds).

SMILES	activity at 20 µg/mL
CNC[C@H](O)c1ccc(O)c(O)c1 [epinephrine, reference compound]	140 ± 24%

same assay, conditions: known compounds at 20 γ/ml, L-M cells, 24 hours, 37° C., read-out: % Control (NGF produced and secreted relative to cells not treated with the test compounds)

SMILES	activity at 20 µg/mL
N[C@@H](Cc1ccc(O)c(O)c1)C(=O)O [L-DOPA, reference compound]	117 ± 7%
O=C(O)/C=C/c1ccc(O)c(O)c1 [caffeic Acid, reference compound]	123 ± 14%
CC(C)NCC(O)c1ccc(O)c(O)c1 (stereo not drawn) [isoproterenol, reference compound]	168 ± 22%

same assay, conditions: test compounds of this invention at 10 γ/ml, L-M cells, 24 hours, 37° C., read-out: % Control (NGF produced and secreted relative to cells not treated with the test compounds)

SMILES	activity at 10 µg/mL
Nc1ccc(CCC(=O)NC23CC4CC(CC(C4)C2)C3)cc1N [Example 22, N-(1-Adamantyl)-3-(3,4-diaminophenyl)propionamide]	380%
Nc1ccc(CCC(=O)Nc2cnc3ccccc3c2)cc1N [Example 34, N-(3-Quinolyl)-3-(3,4-diaminophenyl)propiomide]	606%
Nc1ccc(CCC(=O)N(c2ccccc2)c2ccccc2)cc1N [Example 40, N,N-Diphenyl-3-(3,4-diaminophenyl) propionamide]	276%
Nc1ccc(CCC(=O)Nc2ccc(C(=O)c3ccccc3)cc2)cc1N [Example 43, N-(4-Benzoylphenyl)-3-(3,4-diaminophenyl)propionamide]	491%
Nc1cc(CCC(=O)NC2CCc3ccccc32)ccc1O (stereo not drawn) [Example 53, N-(1-Indanyl)-3-(4-hydroxy-3-aminophenyl)propionamide]	315%
